# In patent US20210107874A1, “PHARMACEUTICAL FORMULATION OF CROTONYLAMINOPYRIDINE SALT” (priority 2017, published 2021):
# “And” between values parts separate entries of the source, which are not always exact repeats. Identical values can stand only once. Like-named read-outs stand apart in the source and are kept apart here.
# Assays:
# [1] = Visual solubility test of compound 5 in aqueous acid solution; type: physicochemical
# Experimental: A visual solubility test (100 μL) at a series of target concentrations of 50, 100 or 200 mg/mL of compound 5 in aqueous acid solution was performed.
# In a 96 well plate (400-600 μL), compound 5 was dispensed (5, 10, or 20 mg per well), acid was added (100 μl of a 350 mM solution in water to each well) and the mixtures were equilibrated at 25° C. with stirring. Solubility was checked by visual inspection after 30 min and after one day.
# [2] = Formulation with 10% compound 5: stability of clear solution; type: physicochemical; conditions: 10% formulation (~100 mg/ml)
# [3] = PK studies of formulations, plasma by HPLC-MS/MS; type: in vivo; conditions: Cattle
# Experimental: The following formulations were prepared and administered to animals. Blood samples were collected at pre-defined time points and the amount of compound present in plasma at the time of sampling was determined by HPLC-MS/MS. Pharmacokinetic parameters were then calculated: Cmax, Tmax, Tlast, AUC. [table]
# [4] = Acetic Acid 350 mM in water, 25° C.
# [5] = Ethanesulfonic Acid 350 mM in water
# [6] = Glucuronic Acid 350 mM in water
# [7] = Glutamic Acid 350 mM in water, 25° C.
# [8] = Methanesulfonic Acid 350 mM in water
# [9] = Methanesulfonic Acid 350 mM in water, 25° C.
# [10] = Nicotinic Acid 350 mM in water, 25° C.
# [11] = Oxoglutaric Acid 350 mM in water
# [12] = lsethionic Acid 350 mM in water
# [13] = lsethionic Acid 350 mM in water, 25° C.
# [14] = FormO50 (L-tartaric acid, NaOH up to pH 4.4, water), SC, 1 mg/kg
# [15] = FormO50 (L-tartaric acid, NaOH up to pH 4.4, water), SC, 5 mg/kg
# [16] = FormO100 (L-tartaric acid, NaOH up to pH 4.4, water), SC, 1.5 mg/kg
compound,measurement,setting,value
COc1cc(NCCNC(=O)/C=C/C(C)(F)F)ccn1 [Compound 5],pH for 50 mg/mL,[1]; Acetic Acid 350 mM in water,5.09
same,pH for 100 mg/mL,[1]; Acetic Acid 350 mM in water,5.02
same,pH for 200 mg/mL,[1]; Acetic Acid 350 mM in water,5.06
same,Range at 1 Day,[1]; [4],<58 mg/mL
same,Range at 30 mins.,[1]; [4],<58 mg/mL
same,pH for 50 mg/mL,[1]; Benzoic Acid 350 mM in water,4.94
same,pH for 100 mg/mL,[1]; Benzoic Acid 350 mM in water,5.23
same,pH for 200 mg/mL,[1]; Benzoic Acid 350 mM in water,5.20
same,pH for 50 mg/mL,[1]; Citric Acid 350 mM in water,3.36
same,pH for 100 mg/mL,[1]; Citric Acid 350 mM in water,4.06
same,pH for 200 mg/mL,[1]; Citric Acid 350 mM in water,4.84
same,pH for 50 mg/mL,[1]; [5],0.96
same,pH for 100 mg/mL,[1]; [5],1.17
same,pH for 200 mg/mL,[1]; [5],4.99
same,pH for 50 mg/mL,[1]; Fumaric Acid 350 mM in water,3.59
same,pH for 100 mg/mL,[1]; Fumaric Acid 350 mM in water,3.89
same,pH for 200 mg/mL,[1]; Fumaric Acid 350 mM in water,4.86
same,pH for 50 mg/mL,[1]; [6],3.60
same,pH for 100 mg/mL,[1]; [6],4.86
same,pH for 200 mg/mL,[1]; [6],4.80
same,pH for 50 mg/mL,[1]; Glutamic Acid 350 mM in water,5.11
same,pH for 100 mg/mL,[1]; Glutamic Acid 350 mM in water,5.05
same,pH for 200 mg/mL,[1]; Glutamic Acid 350 mM in water,5.14
same,Range at 1 Day,[1]; [7],<53 mg/mL
same,Range at 30 mins.,[1]; [7],<53 mg/mL
same,pH for 50 mg/mL,[1]; Lactic Acid 350 mM in water,4.50
same,pH for 100 mg/mL,[1]; Lactic Acid 350 mM in water,4.88
same,pH for 200 mg/mL,[1]; Lactic Acid 350 mM in water,4.94
same,pH for 50 mg/mL,[1]; Malic Acid 350 mM in water,3.68
same,pH for 100 mg/mL,[1]; Malic Acid 350 mM in water,4.45
same,pH for 200 mg/mL,[1]; Malic Acid 350 mM in water,4.78
same,pH for 50 mg/mL,[1]; [8],7.60
same,pH for 100 mg/mL,[1]; [8],7.61
same,pH for 200 mg/mL,[1]; [8],7.31
same,Range at 1 Day,[1]; [9],<52 mg/mL
same,Range at 30 mins.,[1]; [9],<52 mg/mL
same,pH for 50 mg/mL,[1]; Nicotinic Acid 350 mM in water,"5,25"
same,pH for 100 mg/mL,[1]; Nicotinic Acid 350 mM in water,5.15
same,pH for 200 mg/mL,[1]; Nicotinic Acid 350 mM in water,5.16
same,Range at 1 Day,[1]; [10],<74 mg/mL
same,Range at 30 mins.,[1]; [10],<74 mg/mL
same,pH for 50 mg/mL,[1]; Oxalic Acid 350 mM in water,1.81
same,pH for 100 mg/mL,[1]; Oxalic Acid 350 mM in water,3.27
same,pH for 200 mg/mL,[1]; Oxalic Acid 350 mM in water,4.81
same,pH for 50 mg/mL,[1]; [11],2.66
same,pH for 100 mg/mL,[1]; [11],4.17
same,pH for 200 mg/mL,[1]; [11],4.89
same,pH for 50 mg/mL,[1]; Succinic Acid 350 mM in water,4.57
same,pH for 100 mg/mL,[1]; Succinic Acid 350 mM in water,5.01
same,pH for 200 mg/mL,[1]; Succinic Acid 350 mM in water,4.99
same,pH for 50 mg/mL,[1]; Tartaric Acid 350 mM in water,2.92
same,pH for 100 mg/mL,[1]; Tartaric Acid 350 mM in water,3.71
same,pH for 200 mg/mL,[1]; Tartaric Acid 350 mM in water,4.70
same,solubility at 30 min,"[1]; aqueous acid solution, aqueous buffer, thermodynamic from solid, Benzoic Acid 350 mM in water, 25° C., read-out: Range at 30 mins.",< 49 mg/mL
same,pH for 50 mg/mL,[1]; [12],7.83
same,pH for 100 mg/mL,[1]; [12],7.85
same,pH for 200 mg/mL,[1]; [12],7.93
same,Range at 1 Day,[1]; [13],<52 mg/mL
same,Range at 30 mins.,[1]; [13],<52 mg/mL
same,solubility (in words),"[1]; with nicotinic acid, methanesulfonic acid, isethionic acid, benzoic acid, acetic acid and glutamic acid",poor solubility
same,solubility (in words),"[1]; with tartaric acid, fumaric acid, citric acid, malic acid, oxalic acid, oxoglutaric acid and ethanesulfonic acid",good solubility
same,stability (remains clear solution),"[2]; pH of 4.4, equimolar Citric acid",3 months
same,stability (remains clear solution),"[2]; pH of 4.4, equimolar Malic acid",3 months
same,stability (remains clear solution),"[2]; pH of 4.4, equimolar Tartaric acid",3 months
same,Tlast,"[3]; FormO50 (L-tartaric acid, NaOH up to pH 4.4, water), SC, 0.5 mg/kg",4.4 h
same,Tlast,"[3]; FormO50 (L-tartaric acid, NaOH up to pH 4.4, water), SC, 0.75 mg/kg",5.6 h
same,AUC,[3]; [14],1149 ng·h/mL and 969 ng·h/mL
same,Cmax,[3]; [14],705 ng/mL and 815 ng/mL
same,Tlast,[3]; [14],6 h and 7 h and 6.8 h
same,AUC,[3]; [15],8817 ng·h/mL
same,Cmax,[3]; [15],5975 ng/mL
same,Tlast,[3]; [15],8 h
same,Tlast,"[3]; FormO50 (L-tartaric acid, NaOH up to pH 4.4, water), SC, 10 mg/kg",12 h
same,AUC,[3]; [16],1422 ng·h/mL
same,Cmax,[3]; [16],862 ng/mL
same,Tlast,[3]; [16],10.0 h and 8.5 h
same,Tmax,[3]; [16],22.8 min
same,Tlast,"[3]; FormU100 (L-tartaric acid, propylene glycol 400 mg, benzylalcohol, water), SC, 1.5 mg/kg",10.0 h
same,Tlast,"[3]; FormV100 (L-tartaric acid, propylene glycol 500 mg, benzylalcohol, water), SC, 1.5 mg/kg",10.0 h
same,Tlast,"[3]; FormW100 (L-tartaric acid, propylene glycol 300 mg, benzylalcohol, water), SC, 1.5 mg/kg",9.5 h
same,AUC,"[3]; bovine, plasma, sc, 0.5 mg/kg, pH 4.4, FormO50 (L-tartaric acid, NaOH up to pH 4.4, water), 0.5 mg/kg, read-out: AUC",371 ng·h/mL
same,Cmax,"[3]; bovine, plasma, sc, 0.5 mg/kg, pH 4.4, FormO50 (L-tartaric acid, NaOH up to pH 4.4, water), 0.5 mg/kg, read-out: Cmax",305 ng/mL
same,Tmax,"[3]; bovine, plasma, sc, 0.5 mg/kg, pH 4.4, FormO50 (L-tartaric acid, NaOH up to pH 4.4, water), 0.5 mg/kg, read-out: Tmax",18 min
same,AUC,"[3]; bovine, plasma, sc, 0.75 mg/kg, pH 4.4, FormO50 (L-tartaric acid, NaOH up to pH 4.4, water), 0.75 mg/kg, read-out: AUC",616 ng·h/mL
same,Cmax,"[3]; bovine, plasma, sc, 0.75 mg/kg, pH 4.4, FormO50 (L-tartaric acid, NaOH up to pH 4.4, water), 0.75 mg/kg, read-out: Cmax",397 ng/mL
same,Tmax,"[3]; bovine, plasma, sc, 0.75 mg/kg, pH 4.4, FormO50 (L-tartaric acid, NaOH up to pH 4.4, water), 0.75 mg/kg, read-out: Tmax",30 min
same,AUC,"[3]; bovine, plasma, sc, 1 mg/kg, pH 4.4, FormO50 (L-tartaric acid, NaOH up to pH 4.4, water), 1 mg/kg, read-out: AUC",973 ng·h/mL
same,Cmax,"[3]; bovine, plasma, sc, 1 mg/kg, pH 4.4, FormO50 (L-tartaric acid, NaOH up to pH 4.4, water), 1 mg/kg, read-out: Cmax",521 ng/mL
same,Tmax,"[3]; bovine, plasma, sc, 1 mg/kg, pH 4.4, FormO50 (L-tartaric acid, NaOH up to pH 4.4, water), 1 mg/kg, read-out: Tmax",36 min
same,AUC,"[3]; bovine, plasma, sc, 1.5 mg/kg, FormU100 (L-tartaric acid, propylene glycol 400 mg, benzylalcohol, water), 1.5 mg/kg, read-out: AUC",1680 ng·h/mL
same,Cmax,"[3]; bovine, plasma, sc, 1.5 mg/kg, FormU100 (L-tartaric acid, propylene glycol 400 mg, benzylalcohol, water), 1.5 mg/kg, read-out: Cmax",593 ng/mL
same,Tmax,"[3]; bovine, plasma, sc, 1.5 mg/kg, FormU100 (L-tartaric acid, propylene glycol 400 mg, benzylalcohol, water), 1.5 mg/kg, read-out: Tmax",37.8 min
same,AUC,"[3]; bovine, plasma, sc, 1.5 mg/kg, FormV100 (L-tartaric acid, propylene glycol 500 mg, benzylalcohol, water), 1.5 mg/kg, read-out: AUC",1520 ng·h/mL
same,Cmax,"[3]; bovine, plasma, sc, 1.5 mg/kg, FormV100 (L-tartaric acid, propylene glycol 500 mg, benzylalcohol, water), 1.5 mg/kg, read-out: Cmax",540 ng/mL
same,Tmax,"[3]; bovine, plasma, sc, 1.5 mg/kg, FormV100 (L-tartaric acid, propylene glycol 500 mg, benzylalcohol, water), 1.5 mg/kg, read-out: Tmax",105 min
same,AUC,"[3]; bovine, plasma, sc, 1.5 mg/kg, FormW100 (L-tartaric acid, propylene glycol 300 mg, benzylalcohol, water), 1.5 mg/kg, read-out: AUC",1520 ng·h/mL
same,Cmax,"[3]; bovine, plasma, sc, 1.5 mg/kg, FormW100 (L-tartaric acid, propylene glycol 300 mg, benzylalcohol, water), 1.5 mg/kg, read-out: Cmax",743 ng/mL
same,Tmax,"[3]; bovine, plasma, sc, 1.5 mg/kg, FormW100 (L-tartaric acid, propylene glycol 300 mg, benzylalcohol, water), 1.5 mg/kg, read-out: Tmax",52.8 min
same,AUC,"[3]; bovine, plasma, sc, 1.5 mg/kg, pH 4.4, FormO100 (L-tartaric acid, NaOH up to pH 4.4, water), 1.5 mg/kg, read-out: AUC",1680 ng·h/mL
same,Cmax,"[3]; bovine, plasma, sc, 1.5 mg/kg, pH 4.4, FormO100 (L-tartaric acid, NaOH up to pH 4.4, water), 1.5 mg/kg, read-out: Cmax",1010 ng/mL
same,Tmax,"[3]; bovine, plasma, sc, 1.5 mg/kg, pH 4.4, FormO100 (L-tartaric acid, NaOH up to pH 4.4, water), 1.5 mg/kg, read-out: Tmax",18.6 min
same,AUC,"[3]; bovine, plasma, sc, 5 mg/kg, pH 4.4, FormO50 (L-tartaric acid, NaOH up to pH 4.4, water), 5 mg/kg, read-out: AUC",7890 ng·h/mL
same,Cmax,"[3]; bovine, plasma, sc, 5 mg/kg, pH 4.4, FormO50 (L-tartaric acid, NaOH up to pH 4.4, water), 5 mg/kg, read-out: Cmax",3310 ng/mL
same,Tmax,"[3]; bovine, plasma, sc, 5 mg/kg, pH 4.4, FormO50 (L-tartaric acid, NaOH up to pH 4.4, water), 5 mg/kg, read-out: Tmax",24 min
same,AUC,"[3]; bovine, plasma, sc, 10 mg/kg, pH 4.4, FormO50 (L-tartaric acid, NaOH up to pH 4.4, water), 10 mg/kg, read-out: AUC",18800 ng·h/mL
same,Cmax,"[3]; bovine, plasma, sc, 10 mg/kg, pH 4.4, FormO50 (L-tartaric acid, NaOH up to pH 4.4, water), 10 mg/kg, read-out: Cmax",5930 ng/mL
same,Tmax,"[3]; bovine, plasma, sc, 10 mg/kg, pH 4.4, FormO50 (L-tartaric acid, NaOH up to pH 4.4, water), 10 mg/kg, read-out: Tmax",36 min
